Measurements: US20040259135A1, “Biosynthetic labeling and separation of RNA” (priority 2003, published 2004)

Key:
[1] = system: T gondii; assay: Growth of T gondii within human foreskin fibroblast cells in media containing 2,4-dithiouracil; assay type: cell-based, Toxoplasma gondii; details: 5 μM to 2 mM 2,4-dithiouracil, even at highest concentration (2 mM); replication monitored over time
Description: (§1) Methods and Results: Initial experiments assayed the growth of T gondii within human foreskin fibroblast cells in media containing a range of concentrations of 2,4-dithiouracil (5 μM to 2 mM). Equivalent numbers of parasites were used to infect host cells and the replication of the parasites in the different concentrations of 2,4-dithiouracil was monitored over time.

[2] = system: human foreskin fibroblast cells; assay: Growth of human foreskin fibroblast host cells in media containing 2,4-dithiouracil; assay type: cell-based; details: 5 μM to 2 mM 2,4-dithiouracil, even at highest concentration (2 mM)
Description: as §1

[3] = system: human RNA; assay: Incorporation of thiouracil into RNA of human foreskin fibroblast host cells (HPDP-biotin, streptavidin-HRP northern blot); assay type: cell-based; details: Toxoplasma-infected human foreskin fibroblasts, 2 mM, 6 hours
Description: (§2) To test for the incorporation of thiouracil into RNA, wild type (WT) parasites and mutants that lack the UPRT enzyme (UPRT(−)) were used to infect human foreskin fibroblasts in culture after which, the normal medium was replaced with medium containing 2 mM 2,4-dithiouracil. Following growth in this medium for 6 hours, the infected cells were harvested and RNA prepared by standard methods using Trizol reagent from Gibco-BRL.
(§3) The resulting RNA was incubated with HPDP-biotin (EZ-Link Biotin-HPDP (N-(6-(Biotinamido)hexyl)-3′-(2′-pyridyidithio)-propionamide) from Pierce Biotechnology) which specifically reacts with free thiols which are normally not present in RNA. For both RNA samples (WT and UPRT(−)) 25 μg of RNA was incubated with 50 μl of a 1 mg/ml Biotin-HPDP solution and Tris HCl/EDTA buffer (pH 7.4) for 1.5 hours. Biotinylated RNA was precipitated from any excess biotin by isopropanol precipitation and centrifugation. Approximately 2.5 μg of this material was resolved by agarose gel electrophoresis and transferred to a nitrocellulose filter, all by standard procedures. The resulting filter was then probed with streptavidin conjugated to horseradish peroxidase (Streptavidin-HRP) and the bound material detected with chemiluminescence (using the ECL kit from Amersham). […] The upper-most major band is from the large subunit of the human ribosome.

[4] = biological target: UPRT of the protozoan Toxoplasma gondii (Toxoplasma gondii, UniProt Q26998); details: purified enzyme; 100 different compounds tested in previous studies; cited from earlier work
Sequence of UPRT of the protozoan Toxoplasma gondii (Q26998 whole entry): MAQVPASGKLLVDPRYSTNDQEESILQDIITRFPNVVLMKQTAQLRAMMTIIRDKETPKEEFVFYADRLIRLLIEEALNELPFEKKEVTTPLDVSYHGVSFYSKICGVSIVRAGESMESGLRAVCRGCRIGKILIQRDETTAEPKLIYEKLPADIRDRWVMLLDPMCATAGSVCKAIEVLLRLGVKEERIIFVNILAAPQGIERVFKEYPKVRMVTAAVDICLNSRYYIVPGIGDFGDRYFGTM

[5] = system: Toxoplasma RNA; assay: Incorporation of thiouracil into Toxoplasma RNA (HPDP-biotin labeling, northern blot probed with streptavidin-HRP); assay type: cell-based, Toxoplasma gondii; details: 6 hours
Description: as §2, §3

[6] = system: HeLa cells; assay: Incorporation of thiouracil into RNA of HeLa cells with or without the Toxoplasma UPRT gene (northern blot); assay type: cell-based, human; details: 6 hours
Excerpt: Methods and Results: The coding region of the Toxoplasma UPRT gene was incorporated into the retroviral vector known as LNCX (Miller & Rosman (1989) BioTechniques 7:980-990), placing the UPRT gene under control of the cytomegalovirus immediate-early promoter. This construct was introduced into HeLa cells and cell lines that had stably incorporated the vector were selected using neomycin. Cells that survived this selection and non-transfected HeLa cells were both grown in the presence of 2,4-dithiouracil for 6 hours. RNA was isolated from these cells and labeled with HPDP-biotin as described above. Incorporation of thiouracil was detected by northern blot as described above.

In the case of `Sc1ccnc(S)n1` [2,4-dithiouracil], the “growth defects of the parasites” value [1] is reported as “No growth defects”, the “growth defects of the human cells” value [2] is reported as “No growth defects” and the “incorporation into human RNA” value [3] is reported as “not incorporated”. The “substrate of purified UPRT (conversion into nucleoside monophosphate)” value (“substrate of purified UPRT” below) [4] was “converted into UMP”, the “incorporation of thiouracil into Toxoplasma RNA, UPRT dependence” value ([5]; WT versus mutants that lack the UPRT enzyme (UPRT(−)), 2 mM) was “only in parasites with the UPRT enzyme” and the “incorporation of thiouracil into Toxoplasma ribosomal RNA” value ([5]; wild type parasites in human foreskin fibroblasts, 2 mM 2,4-dithiouracil) was “two of the three major bands detectable by ethidium staining of the RNA have thiouracil incorporated into them”. The “incorporation of thiouracil into RNA” value ([6]; HeLa cells that had received the Toxoplasma UPRT gene) was “good incorporation at a level similar to that seen with the parasites” and the “incorporation of thiouracil into RNA” value ([6]; normal (non-transfected) HeLa cells) was “lack the ability to incorporate the thiouracil”.

For `O=c1[nH]cc(F)c(=O)[nH]1` [5-fluorouracil], the “substrate of purified UPRT” value [4] is listed as “known toxic substrates”.

In the case of `O=c1c[n+]([O-])cc[nH]1` [emimycin], the “substrate of purified UPRT” value [4] is listed as “known toxic substrates”.
